Measurements taken from patent US20260297060A1, “COMPOUNDS FOR THE DEGRADATION OF MUTANT BRAF” (C4 THERAPEUTICS, INC., priority 2023, published 2026).

System: A375-NRAS^Q61K cells
Test: CTGlo Cell Viability Assay, A375-NRAS^Q61K (A375.11) cells, 96 hours
Assay type: cell-based, human
Settings: A375.11 (A375-NRAS^Q61K) cells
Procedure, shortened: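 Viability as CellTiter-Glo ATP luminescence after 96 h compound exposure at 37 °C; A375.11 (BRAF V600E/NRAS Q61K) cells at 250/well, top final concentration 10 μM in half-log steps. Signal was background-corrected and set relative to DMSO controls. A 4-parameter logistic fit gave GI50 (50% crossing) and Emax.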

[1] = Homo sapiens, 96 h, lowest % viability achieved

## CO[C@@H]1CCN(S(=O)(=O)Nc2ccc(F)c(Oc3ccc4ncn([C@H]5COC6(CCN(C7CCC(c8ccc(NC9CCC(=O)NC9=O)cc8F)CC7)CC6)C5)c(=O)c4c3)c2C#N)C1 (single isomer, unassigned) [Compound 109]
Homo sapiens, 96 h
  GI50: < 1000 nM
[1]
  Emax: < 50%

## CCN(C)S(=O)(=O)Nc1ccc(F)c(Oc2ccc3ncc(OC4CCN(C5CCC(c6ccc(NC7CCC(=O)NC7=O)cc6F)CC5)CC4)nc3c2)c1C#N (single isomer, unassigned) [Compound 110, 7-[2-cyano-3-[[ethyl(methyl)sulfamoyl]amino]-6-fluoro-phenoxy]-2-[[1-[4-[4-[(2,6-dioxo-3-piperidyl)amino]-2-fluoro-phenyl]cyclohexyl]-4-piperidyl]oxy]quinoxaline]
Homo sapiens, 96 h
  GI50: > 10000 nM
[1]
  Emax: 50 to 90%

## Cn1nc(N2CCC(=O)NC2=O)c2cc(F)c(C3CCC(N4CCC5(CC4)C[C@@H](n4cnc6ccc(Oc7c(F)ccc(NS(=O)(=O)C8CCCC8)c7C#N)cc6c4=O)CO5)CC3)cc21 (single isomer, unassigned) [Compound 113]
Homo sapiens, 96 h
  GI50: < 1000 nM
[1]
  Emax: < 50%

## CO[C@H]1CCN(S(=O)(=O)Nc2ccc(F)c(Oc3ccc4ncn([C@H]5COC6(CCN(C7CCC(c8cc9c(cc8F)c(N8CCC(=O)NC8=O)nn9C)CC7)CC6)C5)c(=O)c4c3)c2C#N)C1 (single isomer, unassigned) [Compound 115]
Homo sapiens, 96 h
  GI50: < 1000 nM
[1]
  Emax: < 50%

## CCN(C)S(=O)(=O)Nc1ccc(F)c(Oc2ccc3ncc(OCC4CCN(C5CCC(c6cc7c(cc6F)c(N6CCC(=O)NC6=O)nn7C)CC5)CC4)nc3c2)c1C#N (single isomer, unassigned) [Compound 118, 7-[2-cyano-3-[[ethyl(methyl)sulfamoyl]amino]-6-fluoro-phenoxy]-2-[[1-[4-[3-(2,4-dioxohexahydropyrimidin-1-yl)-5-fluoro-1-methyl-indazol-6-yl]cyclohexyl]-4-piperidyl]methoxy]quinoxaline]
Homo sapiens, 96 h
  GI50: 1000 to 10000 nM
[1]
  Emax: 50 to 90%

## Cn1nc(N2CCC(=O)NC2=O)c2cc(F)c(C3CCC(N4CCC5(CC4)C[C@@H](n4cnc6ccc(Oc7c(F)ccc(NS(=O)(=O)N8CC[C@@H](F)C8)c7C#N)cc6c4=O)CO5)CC3)cc21 (single isomer, unassigned) [Compound 121]
Homo sapiens, 96 h
  GI50: < 1000 nM
[1]
  Emax: < 50%

## Cn1nc(N2CCC(=O)NC2=O)c2cc(F)c(C3CCC(N4CCC5(CC4)CC(n4cnc6ccc(Oc7c(F)ccc(NS(=O)(=O)N8CC[C@@H](F)C8)c7C#N)cc6c4=O)C5)CC3)cc21 (single isomer, unassigned) [Compound 122]
Homo sapiens, 96 h
  GI50: < 1000 nM
[1]
  Emax: < 50%

## CCN(C)S(=O)(=O)Nc1ccc(F)c(Oc2ccc3ncn(CC4CCN(C5CCC(c6cc7c(cc6F)c(N6CCC(=O)NC6=O)nn7C)CC5)CC4)c(=O)c3c2)c1C#N (single isomer, unassigned) [Compound 126, 6-[2-cyano-3-[[ethyl(methyl)sulfamoyl]amino]-6-fluoro-phenoxy]-3-[[1-[4-[3-(2,4-dioxohexahydropyrimidin-1-yl)-5-fluoro-1-methyl-indazol-6-yl]cyclohexyl]-4-piperidyl]methyl]-4-oxo-quinazoline]
Homo sapiens, 96 h
  GI50: 1000 to 10000 nM
[1]
  Emax: 50 to 90%

## CN(CCO)S(=O)(=O)Nc1ccc(F)c(Oc2ccc3ncn(C4CC5(CCN(C6CCC(c7cc8c(cc7F)c(N7CCC(=O)NC7=O)nn8C)CC6F)CC5)C4)c(=O)c3c2)c1C#N (single isomer, unassigned) [Compound 145, 6-[2-cyano-6-fluoro-3-[[2-hydroxyethyl(methyl)sulfamoyl]amino]phenoxy]-3-[7-[4-[3-(2,4-dioxohexahydropyrimidin-1-yl)-5-fluoro-1-methyl-indazol-6-yl]-2-fluoro-cyclohexyl]-7-azaspiro[3.5]nonan-2-yl]-4-oxo-quinazoline]
  GI50: 1000 to 10000 nM
[1]
  Emax: 50 to 90%

## CCN(C)S(=O)(=O)Nc1ccc(F)c(Oc2ccc3ncc([C@H]4COC5(CCN(C6CCC(c7cc8c(cc7F)c(N7CCC(=O)NC7=O)nn8C)CC6F)CC5)C4)nc3c2)c1C#N (single isomer, unassigned) [Compound 160]
Homo sapiens, 96 h
  GI50: < 1000 nM
[1]
  Emax: 50 to 90%

## CCN(C)S(=O)(=O)Nc1ccc(F)c(Oc2ccc3ncn(C4CC5(CCN(C6CCC(c7cc8c(cc7F)c(N7CCC(=O)NC7=O)nn8C)CC6)CC5)C4)c(=O)c3c2)c1F (single isomer, unassigned) [Compound 178, 3-[7-[4-[3-(2,4-dioxohexahydropyrimidin-1-yl)-5-fluoro-1-methyl-indazol-6-yl]cyclohexyl]-7-azaspiro[3.5]nonan-2-yl]-6-[3-[[ethyl(methyl)sulfamoyl]amino]-2,6-difluoro-phenoxy]-4-oxo-quinazoline]
Homo sapiens, 96 h
  GI50: 1000 to 10000 nM
[1]
  Emax: 50 to 90%

## CCN(C)S(=O)(=O)Nc1ccc(F)c(Oc2ccc3ncc(C4CC5(CCN(C6CCC(c7cc8c(cc7F)c(N7CCC(=O)NC7=O)nn8C)CC6)CC5)C4)nc3c2)c1C#N (single isomer, unassigned) [Compound 180, 7-[2-cyano-3-[[ethyl(methyl)sulfamoyl]amino]-6-fluoro-phenoxy]-2-[7-[4-[3-(2,4-dioxohexahydropyrimidin-1-yl)-5-fluoro-1-methyl-indazol-6-yl]cyclohexyl]-7-azaspiro[3.5]nonan-2-yl]quinoxaline]
Homo sapiens, 96 h
  GI50: < 1000 nM
[1]
  Emax: < 50%

## CCN(C)S(=O)(=O)Nc1ccc(F)c(C(=O)c2ccc3ncn(C4CC5(CCN(C6CCC(c7cc8c(cc7F)c(N7CCC(=O)NC7=O)nn8C)CC6)CC5)C4)c(=O)c3c2)c1F (single isomer, unassigned) [Compound 182, 3-[7-[4-[3-(2,4-dioxohexahydropyrimidin-1-yl)-5-fluoro-1-methyl-indazol-6-yl]cyclohexyl]-7-azaspiro[3.5]nonan-2-yl]-6-[3-[[ethyl(methyl)sulfamoyl]amino]-2,6-difluoro-benzoyl]-4-oxo-quinazoline]
Homo sapiens, 96 h
  GI50: 1000 to 10000 nM
[1]
  Emax: 50 to 90%

## CCN(C)S(=O)(=O)Nc1ccc(F)c(Oc2ccc3ncn(C4CC5(CCN(C6CCC(c7cc8c(cc7F)c(N7CCC(=O)NC7=O)nn8C)CC6F)CC5)C4)c(=O)c3c2)c1F (single isomer, unassigned) [Compound 184]
  GI50: 1000 to 10000 nM
[1]
  Emax: 50 to 90%

## CCN(C)S(=O)(=O)Nc1ccc(F)c(Oc2ccc3ncn(C4CC5(C4)CN(C4CCC(c6cc7c(cc6F)c(N6CCC(=O)NC6=O)nn7C)CC4)C5)c(=O)c3c2)c1C#N (single isomer, unassigned) [Compound 204, 6-[2-cyano-3-[[ethyl(methyl)sulfamoyl]amino]-6-fluoro-phenoxy]-3-[2-[4-[3-(2,4-dioxohexahydropyrimidin-1-yl)-5-fluoro-1-methyl-indazol-6-yl]cyclohexyl]-2-azaspiro[3.3]heptan-6-yl]-4-oxo-quinazoline]
  GI50: < 1000 nM
Lowest % viability achieved
  CTGlo A375.11 96 hours Emax: ** (<90% and >50%)

## CCN(C)S(=O)(=O)Nc1ccc(F)c(Oc2ccc3ncc(OC4CC5(CCN(C6CCC(c7cc8c(cc7F)c(N7CCC(=O)NC7=O)nn8C)CC6)CC5)C4)nc3c2)c1C#N (single isomer, unassigned) [Compound 218, 7-[2-cyano-3-[[ethyl(methyl)sulfamoyl]amino]-6-fluoro-phenoxy]-2-[[7-[4-[3-(2,4-dioxohexahydropyrimidin-1-yl)-5-fluoro-1-methyl-indazol-6-yl]cyclohexyl]-7-azaspiro[3.5]nonan-2-yl]oxy]quinoxaline]
  GI50: < 1000 nM
[1]
  Emax: 50 to 90%
